{
  "source": "patent US20170266155A1",
  "about": "“METHOD FOR ENHANCING THE OXYGENATION LEVEL OF TISSUE CELLS AS AN ALTERNATIVE METHOD FOR HYPERBARIC OXYGEN THERAPY” (National Sun Yat-sen University, priority 2016, published 2017)",
  "target": "hemoglobin (Hb) (Homo sapiens, UniProt P68871+P69905)",
  "sequence (P69905 2-142 limits assumed)": "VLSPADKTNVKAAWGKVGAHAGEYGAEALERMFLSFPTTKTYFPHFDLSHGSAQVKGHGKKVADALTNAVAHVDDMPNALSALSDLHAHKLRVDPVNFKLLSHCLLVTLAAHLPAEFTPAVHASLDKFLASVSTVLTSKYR",
  "sequence (P68871 2-147 limits assumed)": "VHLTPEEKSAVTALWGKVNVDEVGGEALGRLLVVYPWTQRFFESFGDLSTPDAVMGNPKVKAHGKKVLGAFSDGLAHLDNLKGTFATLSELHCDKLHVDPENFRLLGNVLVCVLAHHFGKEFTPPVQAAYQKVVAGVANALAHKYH",
  "test": "Oxygen equilibrium curves and P50 value of hemoglobin (Hb)",
  "assay_type": "biochemical",
  "conditions": "for effect of phthalide compound together with 2,3-BPG on oxygen release efficiency of hemoglobin (Hb): combined with 2,3-BPG (FIG. 1)",
  "from_the_text": "The oxygen affinity of hemoglobin (Hb) is commonly characterized by P50 value. The P50 value is the required oxygen partial pressure to achieve 50% oxygen saturation of hemoglobin. […] An increased blood PCO2, a decreased pH or an increased 2,3-BPG level in erythrocytes can all decrease the oxygen affinity of hemoglobin (Hb), so that the oxygen equilibrium curve shifts to the right and the P50 value increases (as shown in FIG. 2); contrarily, when the oxygen affinity of hemoglobin (Hb) increases, the oxygen equilibrium curve shifts to the left and the P50 value decreases.\nThe oxygen affinity of hemoglobin (Hb) was commonly characterized by P50 value. The P50 value was the required oxygen partial pressure to achieve 50% oxygen saturation for hemoglobin. […] An increased blood PCO2, a decreased pH or an increased 2,3-BPG concentration in erythrocytes could decrease the oxygen affinity of hemoglobin (Hb), as a result, the oxygen equilibrium curve shifted to the right and the P50 value increased (as shown in FIG. 2); contrarily, when the oxygen affinity of hemoglobin (Hb) increased, the oxygen equilibrium curve shifted to the left and the P50 value decreased.",
  "data": [
    {"smiles": "CCC/C=C1\\OC(=O)C2=C1CCC=C2", "note": "[Z-ligustilide]", "values": [
      {"measurement": "effect of phthalide compound together with 2,3-BPG on oxygen release efficiency of hemoglobin (Hb)", "result": "synergistic effect"}
    ]},
    {"smiles": "CCC/C=C1\\OC(=O)C2=C1CC[C@@H](O)[C@@H]2O", "note": "[senkyunolide I]", "values": [
      {"measurement": "effect of phthalide compound together with 2,3-BPG on oxygen release efficiency of hemoglobin (Hb)", "result": "synergistic effect"}
    ]},
    {"smiles": "CCC/C=C1\\OC(=O)c2ccccc21", "note": "[Z-Butylidenephthalide, Z-butylidenephthalide]", "values": [
      {"measurement": "effect on oxygen release efficiency of hemoglobin (Hb) from resulting P50 values", "setting": "shortest detection time frame (30 minutes) (FIG. 2)", "result": "increasing the oxygen release efficiency of hemoglobin (Hb)"}
    ]},
    {"smiles": "O=C(O)C(COP(=O)(O)O)OP(=O)(O)O", "note": "(stereo not drawn) [2,3-BPG, 2,3-bisphosphorglycerate]", "values": [
      {"measurement": "oxygen saturation fraction of hemoglobin (Hb)", "setting": "12 mM 2,3-BPG, fixed oxygen partial pressure of 20 mmHg, 80% where no 2,3-BPG is present (FIG. 3)", "result": 35, "unit": "%"},
      {"measurement": "oxygen release efficiency of Hb", "setting": "12 mM 2,3-BPG, oxygen partial pressure 20 mmHg, 20% without 2,3-BPG", "result": 65, "unit": "%"},
      {"measurement": "P50 value / shift of oxygen equilibrium curve with concentration", "setting": "2,3-BPG concentrations 0.2-12 mM (FIG. 3)", "result": "the P50 value is higher"},
      {"measurement": "oxygen release efficiency", "setting": "PO2=20 mmHg, 1.2 mM 2,3-BPG alone", "result": 40, "unit": "%"},
      {"measurement": "oxygen saturation fraction", "setting": "PO2=20 mmHg, 1.2 mM 2,3-BPG alone (FIG. 6)", "result": "approximately 60%"},
      {"measurement": "P50 value of hemoglobin (Hb)", "setting": "approximately 4 mM 2,3-BPG, no phthalide compound (FIG. 5)", "result": 18.8, "unit": "mmHg"}
    ]}
  ]
}
